Assay results published in patent US20070286823A1, “COMPOSITIONS HAVING ANTI-DENTAL CARIES FUNCTION” (Ezaki Glico Co., Ltd., priority 2001, published 2007).

Legend:
[1] = prior art; cited from earlier work
[2] = remineralization test system using bovine tooth pieces (Example 3)
Method: The remineralization effect of a buffering agent may be examined by a known method, such as a remineralization test system using bovine tooth sections which is described in Inaba. D et al., Eur. J. Sci. 105:74-80, 1997; Inaba. D et al., J. Dent. Health. 47:67-74, 1997; and Iijima. Y et al., Dental Caries Research. 33:206-213, 1999.
This experiment was conducted basically in accordance with Inaba. D et al., Eur. J. Sci. 105:74-80, 1997; Inaba. D et al., J. Dent. Helth. 47:67-74, 1997; and Iijima. Y et al., Caries Research. 33:206-213, 1999.
Tooth pieces used in the experiment were prepared as follows: cubic bovine tooth pieces 3 mm per side were placed so that the enamel surfaces thereof are up. The pieces were covered with composite resin except for the enamel surfaces. The enamel was treated with wet abrasives and paper. Demineralization was conducted as follows: the tooth pieces were immersed in 1% lactate gel (pH 5.0) containing 6% carboxymethylcellulose gel at 37° C. for 3 weeks. Remineralization was conducted as follows: the tooth pieces subjected to demineralization were immersed in 20 mM 2-[4-(2-hydroxyethyl)]-1-piperidinylethane sulfonate (HEPES) buffer (pH 7.0) containing 1.5 mM CaCl2 and 0.9 mM KH2PO4 at 37° C. for one week.
After each treatment, a 200 μm-thick section was prepared from each treated tooth piece, and the mineral concentration distribution thereof was analyzed from the microradiographic images (not shown). […]
After each treatment, the calcium and phosphorus concentrations of the post-remineralization solution were also analyzed. The solution was centrifuged at 10,000 g for two minutes, and the supernatant was analyzed. The phosphorus concentration was determined by molybdic acid method (“Shin-ban Bunseki Kagaku Jikken [New Edition Analyical Chemistry Experiment] (1st ed.), pp. 313-314, published by Kagaku Dojin K. K.), and the calcium concentration was determined by OCPC method (manufactured by Wako Pure Chemicals: measured by a “calcium C test Wako” kit).

[3] = simple remineralization test system (hydroxyapatite, soluble calcium by OCPC method); conditions: for remineralization effect (FIG. 12): final concentration of 0.1%
Excerpt: These conditions for easy remineralization are simplified as follows: in a system including hydroxyapatite, calcium and phosphorus are supplied for crystallization and soluble calcium is reduced; and in a system including no hydroxyapatite, phosphorus and calcium are not deposited and the high solubility thereof is maintained. Therefore, the magnitudes of the solubility of calcium in the two systems were compared to examine the remineralization effect. These simple test systems will be described below. […] For this method, there are the following constraints: a long time required for evaluation; a high-level experimental technique required; etc. Therefore, there is a demand for a simple evaluation system capable of quickly capturing changes in dentin mineral concentrations. Remineralization in an early dental caries lesion in the enamel of teeth is considered to develop via the following two processes:
This method comprises the steps of: (A) precipitating calcium in a solution containing phosphorus, calcium, and tooth components in the presence of the sample; (B) measuring a calcium concentration in the solution or the amount of the precipitated calcium after the precipitation; (C) precipitating calcium in the solution in the absence of the sample; (D) measuring a calcium concentration in the solution or the amount of the precipitated calcium after the precipitation; and (E) comparing calcium concentrations or the amounts of the precipitated calcium in steps (B) and (D). In a preferred embodiment, the above-described solution may contain hydroxyapatite, a buffer, KH2PO4 and CaCl2. The “tooth component” to be contained in the above-described solution is any material that precipitates phosphorus and calcium to produce hydroxyapatite due to remineralization. Use of hydroxyapatite is preferable. Alternatively, teeth of mammals such as a bovine, and sections or fractions thereof may be used. When the solution for calcium precipitation is prepared, the sequence of addition of the above-described phosphorus, calcium, and the other tooth components is not limited. Preferably, first the sample, then, phosphorus, calcium chloride solution, and the tooth component suspension or deionized water are added in this order to prepare the solution. The pH of the solution is preferably adjusted after the addition of KH2PO4. Calcium precipitation typically occurs by incubation at room temperature for ten and several hours to several days (preferably 10 hours to 7 days, more preferably 18 hours to 42 hours). The calcium solubility of the solution can be measured by any procedure known to those skilled in the art. The calcium solubility of the solution may be measured by OCPC method (using calcium C test Wako manufactured by Wako Pure Chemicals). Alternatively, the amount of precipitated calcium in the solution can be measured. The amount of precipitated calcium in the solution may be measured by any procedure known to those skilled in the art. The calcium solubility of the solution may be measured by any procedure known to those skilled in the art. Examples of such a method include the ICP method (Inductive Coupled Plasma method), atomic absorption analysis and an ion electrode method.
In order to examine the remineralization phenomenon in a more simple manner, conditions under which remineralization occurs more easily were simplified. In a system including hydroxyapatite, calcium and phosphorus are supplied for crystallization and soluble calcium is reduced. In contrast, in a system including no hydroxyapatite, calcium and phosphorus are not precipitated so that the solubility thereof is held at a high level. Based on these facts, the following test system was designed.

[4] = as above; conditions: 37° C., 8 days
[5] = system: S. mutans strain 8148; experiment: effect on fermentation of sucrose (pH of bacterial cell suspension); format: cell-based; conditions: 0.684% sugar added to 20% bacterial cell suspension; after 10 minutes
Method: S. mutans strain 8148 was incubated in 1,000 ml of brain heart infusion medium (manufactured by DIFCO Corporation) at 37° C. for 14 hours. Thereafter, the bacteria were collected by centrifugation at 6,000 rpm for 20 minutes. The bacteria was washed with phosphate buffered saline (PBS, pH 7.2), and suspended in the same PBS to 40% (v/v). To measure the pH, a reaction mixture (250 μl) was made of 125 μl of 40% bacterial cell suspension, 62.5 μl of 80 mM sucrose, and 62.5 μl of an aqueous solution containing various oligosaccharides (5% phosphorylated oligosaccharide sodium salt and phosphorylated oligosaccharide calcium salt). The pH of the reaction mixture was continuously measured with a pH meter (manufactured by Toa Denpa) while being incubated at 37° C.

[6] = remineralization solution + 2 ppm F, supernatant

## F [F, fluorine]
[1]
  concentration at which sufficient efficacy is exerted (remineralization): about 2 ppm
[2]; demineralized bovine tooth pieces, remineralization solution + sample, 37° C., one week
  lesion depth (FIG. 2): the lesion depth was unchanged
[2]; [6]
  Ca (mM) of the post-remineralization solution: 0.73 mM
  Pi (mM) of the post-remineralization solution: 0.41 mM

## O=C[C@H](O)[C@@H](O)[C@H](O)[C@H](O)COP(=O)(O)O [glucose-6-phosphate]
[3]
  remineralization effect (FIG. 12): as good as or better than that of the phosphorylated oligosaccharide sodium salt

## OC[C@H]1O[C@H](OC[C@H]2OC(O)(CO)[C@@H](O)[C@@H]2O)[C@H](O)[C@@H](O)[C@@H]1O (stereo partly drawn) [palatinose, 6-O-α-D-Glucopyranosyl-D-Fructofuranose]
[4]
  sample concentration exhibiting a remineralization effect (FIGS. 7A to 7C): 20%
[3]; 20% addition group
  remineralization effect (FIG. 13): the remineralization effect as previously reported (as above) was confirmed

## OC[C@@H](O)[C@@H](O)[C@H](O)[C@@H](O)CO [sorbitol]
[3]; 20% addition group
  remineralization effect (FIG. 13): the remineralization effect as previously reported (as above) was confirmed

## OC[C@H]1O[C@@](CO)(O[C@H]2O[C@H](CO)[C@@H](O)[C@H](O)[C@H]2O)[C@@H](O)[C@@H]1O [sucrose]
[5]
  pH of the reaction liquid: 4.0

## OC[C@@H](O)[C@H](O)[C@@H](O)CO [xylitol]
[4]
  sample concentration exhibiting a remineralization effect (FIGS. 7A to 7C): 20%
[3]; 20% addition group
  remineralization effect (FIG. 13): the remineralization effect as previously reported (as above) was confirmed
[3]; statement in the background referring to the Examples
  effect of xylitol (remineralization): not substantially confirmed

## O=C[C@H](O)[C@@H](O)[C@H](O)CO [xylose]
[3]; 37° C., 8 days
  remineralization percentage (FIG. 7B): low at any concentration

## chondroitin sulfate C [chondroitin sulfate C sodium salt]
[3]
  remineralization effect (FIG. 12): as good as or better than that of the phosphorylated oligosaccharide sodium salt

## dermatan sulfate
[3]; final concentration of 0.2%
  remineralization effect (FIG. 13): confirmed to have the remineralization effect

## palatinit
[4]
  sample concentration exhibiting a remineralization effect (FIGS. 7A to 7C): 20%
